In the NIST ThermoML archive (doi:10.1016/j.tca.2008.10.017):

What was measured:
[1] = for molar entropy: 101.33 kPa, Small (less than 1 g) adiabatic calorimetry; for Triple point temperature: DTA
[2] = Molar enthalpy of transition or fusion; conditions: DSC

CCCC[N+](CCCC)(CCCC)CCCC.[I-] [tetrabutylammonium iodide]
[1], Crystal 2
Conditions | molar entropy [J/K/mol]
5 K | 0.292
10 K | 2.32
20 K | 14.45
30 K | 33.35
40 K | 55.15
50 K | 77.88
60 K | 100.5
70 K | 123
80 K | 145
90 K | 166.3
100 K | 187
110 K | 207.1
120 K | 226.7
130 K | 245.6
140 K | 264
150 K | 282
160 K | 299.4
170 K | 316.5
180 K | 333.2
190 K | 349.6
200 K | 365.7
210 K | 381.6
220 K | 397.2
230 K | 412.6
240 K | 427.9
250 K | 443.1
260 K | 458.1
270 K | 473.1
273.15 K | 477.8
280 K | 488
290 K | 502.9
298.15 K | 515
300 K | 517.7
310 K | 532.6
320 K | 547.4
330 K | 562.3
340 K | 577.3
350 K | 592.4

Conditions | Molar enthalpy of transition or fusion, [2] [kJ/mol] | Triple point temperature, [1] [K]
Crystal 1 | 9 | 423.2
Crystal 2 | 27.8 | 398.7
